Test results from ChEMBL document CHEMBL3351331, “Novel Disubstituted Pyrimidines as Inhibitors of Bruton's Tyrosine Kinase” (ACS Med Chem Lett, 2015).
pIC50: −log10 of the molar value.

Biological target: Tyrosine-protein kinase BTK (Homo sapiens, UniProt Q06187)
Assay: Inhibition of BTK (unknown origin) by Omnia continuous read kinase assay

Sequence of Tyrosine-protein kinase BTK (Q06187 whole entry): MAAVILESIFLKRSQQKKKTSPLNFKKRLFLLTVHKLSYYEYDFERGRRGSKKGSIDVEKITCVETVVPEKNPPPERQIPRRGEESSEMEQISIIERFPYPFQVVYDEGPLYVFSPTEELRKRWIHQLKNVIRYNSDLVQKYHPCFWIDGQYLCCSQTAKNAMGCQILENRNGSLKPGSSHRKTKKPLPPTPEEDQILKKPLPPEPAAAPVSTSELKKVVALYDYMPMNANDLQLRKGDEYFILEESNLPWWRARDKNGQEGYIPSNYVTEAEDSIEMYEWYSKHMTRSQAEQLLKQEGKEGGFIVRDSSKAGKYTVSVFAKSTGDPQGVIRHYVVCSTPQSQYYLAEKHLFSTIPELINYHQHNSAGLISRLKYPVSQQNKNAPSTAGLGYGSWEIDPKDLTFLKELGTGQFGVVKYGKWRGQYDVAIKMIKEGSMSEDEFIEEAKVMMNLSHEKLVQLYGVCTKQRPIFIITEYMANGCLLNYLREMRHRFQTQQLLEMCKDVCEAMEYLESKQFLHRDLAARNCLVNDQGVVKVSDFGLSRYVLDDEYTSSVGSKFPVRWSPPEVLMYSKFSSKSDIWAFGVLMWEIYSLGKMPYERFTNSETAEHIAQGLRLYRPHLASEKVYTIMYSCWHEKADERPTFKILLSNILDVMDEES

pIC50 | Structure (SMILES)
> 8.00 | C=CC(=O)Nc1cccc(Nc2nc(Nc3ccc(OCCO)cc3)ncc2F)c1
> 8.00 | C=CC(=O)Nc1cccc(Nc2nc(Nc3ccc(O)cc3)ncc2F)c1
7.00 | COCCOc1ccc(Nc2ncc(F)c(Nc3cccc(NC(=O)C(O)CO)c3)n2)cc1 (stereo unspecified)
> 8.00 | COCCOc1ccc(Nc2ncc(F)c(Nc3cccc(NC(=O)C4CO4)c3)n2)cc1 (stereo unspecified)
> 8.00 | C=CC(=O)Nc1cccc(N(C)c2nc(Nc3ccc(OCCO)cc3)ncc2F)c1
7.00 | C=CC(=O)Nc1cccc(Nc2nc(N(C)c3ccc(OCCO)cc3)ncc2F)c1
